Test results from patent publication US20250346634A1, “CYCLIC PEPTIDES FOR TARGETING EPIDERMAL GROWTH FACTOR RECEPTOR AND MUTATIONS THEREOF FOR DRUG DELIVERY” (priority 2022, published 2025).
Bridge positions count the residues as written; N and C are the ends. Peptide text beside a SMILES is read from it. * marks the point of attachment. FITC = O=C1OC2(c3ccc(O)cc3Oc3cc(O)ccc32)c2ccc(NC(=S)*)cc21; GABA = NCCCC(=O)O

Assays:
[1] = tested on: H1299, DKMG and K562 cells; assay: Flow cytometry binding of peptide-FITC conjugates; type: cell-based; conditions: 2.5 μM FITC-labeled peptide
From the text: This concentration was chosen based on preliminary dose dependence study.

[2] = tested on: EGFR+ve cells (H1299, DKMG) versus K562 cells; assay: Flow cytometry internalization of peptide-FITC conjugates; type: cell-based; conditions: 2.5 μM FITC-labeled peptide
From the text: Analysis was done with FACS cell analyzer.

[3] = tested on: high-EGFR-expressing MDA-435 cells; assay: Target specificity by flow cytometry, MDA-435; type: cell-based; conditions: FITC-labeled peptides
Procedure: (§1) Cells with 80-90% confluence were incubated with 2.5 μM FITC-conjugated peptides in RPMI-5% FBS for 1 h at 37° C. Cells were scrapped from the culture flask and washed twice with 2 ml FCSB. Cells were analyzed as previously described Internalization of peptide-FITC conjugates.
(§2) Cells were cultured overnight in 6-well plates under 80-90% confluence, the medium was replaced with 1 ml of the fresh medium with 5% FBS that contained 2.5 μM FITC-conjugated peptides. The plates were incubated for 1, 2, or 3 h at 37° C. After incubation, the cells were collected with trypsin, washed twice with FCSB, and resuspended in 200 μl of FCSB. Analysis was done with FACS cell analyzer.
(§3) Targeting specificity of FITC-labeled P4-P6, P8, and P9 peptides was investigated on three cell lines, which were not used in biopanning: kidney HEK-293 and breast MCF-10A normal cells, and breast cancer MDA-435 cells. To verify EGFR WT expression on these cell lines, the inventors stained the cells with APC-labeled monoclonal anti-human EGFR antibody followed by a flow cytometry analysis.
(§4) The interaction of the FITC labeled P4 P6, P8, and P9 with these cell lines was analyzed by flow cytometry.

MCF-10A cells = conditions: FITC-labeled peptides, flow cytometry
Procedure: as §1, §2, §3, §4

[4] = tested on: DKMG cells line expressing both EGFR+ve and EGFRvIII mutation; conditions: 2.5 μM FITC-labeled peptide
Procedure: as §2

DKMG cells = assay: Confocal microscopy, DKMG; type: cell-based; conditions: 25 μM; for green FITC signal: after 3 hours; for fluorescence intensity: time zero
Procedure: (§5) H1299, DKMG and HEK-293 cells were seeded in 12-well glass bottom black plates in concentrations of 5.0×10^4, 1.0×10^5, and 2.5×10^4 cells/well, respectively. The cells were cultured in complete growth medium at 37° C. under 5% CO2 for 24 h. After incubation, the medium was removed, the cells were twice washed with PBS Ca^2+Mg^2+, and new fresh medium (0.5 ml) contained 25 μM of FITC labeled P6 or P9 peptides was added. The stained cells were incubated at 37° C. under 5% CO2 for 0 h and 3 h, washed twice with PBS, and stained with Hoechst 33258 ([…], 0.5 ml, 37° C., 5% CO2) for 10 min. The cells were twice washed with PBS and fixed with 4% paraformaldehyde (PFA). Fluorescence images were then recorded at the magnification of ×200 with a Zeiss LSM700 confocal laser microscope.
(§6) To get additional confirmation data on the specificity of the FITC labeled P6 and P9 peptides towards EGFR H1299 lung cancer and […] DKMG glioblastoma cell lines compared to EGFR−ve HEK-293 normal cells, the inventors employed confocal scanning microscopy. The cells were incubated with 25 μM FITC-labeled P6 and P9, the cell nuclear were stained with […], the cells were fixed with 4% paraformaldehyde, and captured immediately after addition and 3 h later. […] A clear correlation of the green FITC signal with the cell type was established.

H1299 cells = assay: Confocal microscopy, H1299; type: cell-based; conditions: 25 μM
Procedure: as §5, §6

HEK-293 cells = assay: Confocal microscopy, HEK-293; type: cell-based; conditions: 25 μM, after 3 hours
Procedure: as §5, §6

CC(C)C[C@@H]1NC(=O)[C@H](C)NC(=O)[C@H](CO)NC(=O)[C@@H](NC(=O)CCCNC(=S)Nc2ccc3c(c2)C(=O)OC32c3ccc(O)cc3Oc3cc(O)ccc32)CSSC[C@@H](C(N)=O)NC(=O)[C@H](Cc2cnc[nH]2)NC(=O)[C@H](CO)NC(=O)[C@H](C)NC(=O)[C@H](Cc2c[nH]c3ccccc23)NC1=O [FITC-labeled P8] ({FITC-GABA}-CSALWASHC-NH2; disulfide 1-9)
binding (flow cytometry) [1]: bind to H1299 and DKMG selectively but not to K562 cells
internalization (flow cytometry) [2]: internalized only into to EGFR+ve cells
binding to MDA-435 cells [3]: noticeable binding
binding to MCF-10A cells (MCF-10A cells): noticeable binding

CSCC[C@@H]1NC(=O)[C@H](C)NC(=O)[C@H](CC(N)=O)NC(=O)[C@H](C(C)C)NC(=O)[C@@H](NC(=O)CCCNC(=S)Nc2ccc3c(c2)C(=O)OC32c3ccc(O)cc3Oc3cc(O)ccc32)CSSC[C@@H](C(N)=O)NC(=O)[C@H](Cc2ccc(O)cc2)NC(=O)[C@H](CO)NC(=O)[C@H](CCC(N)=O)NC1=O [FITC-labeled P9] ({FITC-GABA}-CVNAMQSYC-NH2; disulfide 1-9)
binding (flow cytometry) [1]: bind to H1299 and DKMG selectively but not to K562 cells
internalization (flow cytometry) [2]: internalized only into to EGFR+ve cells
internalization activity to DKMG [4]: higher internalization activity
internalization into MDA-435 cells [3]: pronounced internalization
green FITC signal (DKMG cells): significantly increased after 3 hours
fluorescence intensity (DKMG cells): pronounced emission

CC[C@H](C)[C@@H]1NC(=O)[C@H](Cc2ccc(O)cc2)NC(=O)[C@H](CO)NC(=O)CNC(=O)[C@@H]2CCCN2C(=O)[C@H](C(C)C)NC(=O)[C@H](Cc2cnc[nH]2)NC(=O)[C@@H](NC(=O)CCCNC(=S)Nc2ccc3c(c2)C(=O)OC32c3ccc(O)cc3Oc3cc(O)ccc32)CSSC[C@@H](C(N)=O)NC1=O [FITC-labeled P6] ({FITC-GABA}-CHVPGSYIC-NH2; disulfide 1-9)
internalization (flow cytometry) [2]: internalized only into to EGFR+ve cells
internalization into MDA-435 cells [3]: pronounced internalization
green FITC signal (H1299 cells; after 3 hours): strong signal
fluorescence intensity (H1299 cells; time zero): not detectable
green FITC signal (DKMG cells): strong signal
fluorescence intensity (DKMG cells): not detectable
green FITC signal (HEK-293 cells): low-intensive signal
